Results as given in patent US20240344059A1, “Gene Editing of Regulatory Elements” (Vertex Pharmaceuticals Incorporated, priority 2021, published 2024).

Tests used:
[1] = system: CUG RNA foci in primary DM1 patient myoblasts / myotubes; experiment: FISH staining of CUG RNA foci (SpCas9 sgRNA pairs); type: cell-based, human; settings: DM1 patient myotubes nucleofected with SpCas9 sgRNA pairs, Group 5 vs Group 6
Method: Primary myoblasts were fixed for 15 min with 4% paraformaldehyde (PFA) and washed five times with 1×PBS for 10 min each at room temperature. Before staining, cells were permeabilized with 0.5% triton X-100 in 1×PBS for 5 min at room temperature, and then washed with 30% formamide and 2× saline-sodium citrate (SSC) mixture for 10 min at room temperature. Cells were then stained with 1 ng/μL of Cy3-PNA(CAG)5 probe (PNA Bio, F5001) diluted in 30% formamide, 2×SSC, 2 μg/mL BSA, 66 μg/mL yeast tRNA, and 2 mM vanadyl complex for 15 min at 80° C. Following probe staining, cells were then washed in 30% formamide and 2×SSC mixture for 30 min at 42° C., then washed in 30% formamide and 2×SSC mixture for 30 min at 37° C., and then washed in 1×SSC solution for 10 min at room temperature, and finally washed in 1×PBS for 10 min at room temperature. For staining of myotube nuclei, cells were stained with anti-Myogenin antibody diluted in 1% bovine serum albumin (BSA) for overnight at 4° C. and washed twice with 1×PBS for 10 min each at room temperature. Cells were then incubated with the secondary antibody goat anti-rabbit Alexa 647 (Thermo Fisher, A32728) diluted in 1% BSA for 1 hr at room temperature and washed twice with 1×PBS for 10 min each at room temperature. […] RNA foci quantifications were accomplished with a customized analysis module of the MetaXpress program (Molecular Devices). […]

[2] = system: E-boxes within intron 1 of human DMPK gene; experiment: PCR, TapeStation and ICE verification of E-box excision (SaCas9/SluCas9 RNP); type: cell-based; settings: DM1 patient myoblasts, 3 μM DNA-PKi Compound 6 for 48 h, TapeStation and ICE analysis
Excerpt: Primary healthy myoblasts (P01431-18F) and DM1 patient myoblasts (03001-32F) were obtained from Cook MyoSite. Myoblasts were maintained in myoblast growth medium consisted of Myotonic™ Basal Medium (Cook Myosite, MB-2222) and Myotonic™ Growth Supplement (Cook Myosite, MS-3333) and purified with EasySep Human CD56 Positive Selection Kit II (StemCell Tech, 17855) following the manufacturer's instruction. Purified myoblasts were then banked in liquid nitrogen tank until 3-4 days before nucleofection.
The RNPs were assembled with either recombinant SaCas9 protein (Aldevron) or SluCas9 (Aldevron) and chemically modified sgRNAs (Synthego) at a ratio of 1:3 (protein:sgRNA). Specifically, SaCas9 RNPs complexes were first assembled for individual sgRNAs with 20 pmol of SaCas9 protein and 60 pmol of sgRNAs in 5 μL of P5 Nucleofector Solution. SluCas9 RNPs complexes were first assembled for individual sgRNAs with 15 pmol of SluCas9 and 45 pmol of sgRNAs in 5 μL of P5 Nucleofector Solution. […]
Genomic DNA of DM1 myoblasts was isolated with the Kingfisher Flex purification system (Thermal Fisher) in 96-well format following the manufacturer's instruction. […] The PCR products were analyzed by gel electrophoresis. […]

DMPK mRNA = DMPK mRNA expression by ddPCR (SaCas9/SluCas9 sgRNA pairs); type: cell-based, human; settings: DM1 myotubes, 3 μM DNA-PKi Compound 6 for 48 h
Excerpt: mRNA of DM1 myotubes was isolated with the Kingfisher Flex purification system (Thermal Fisher) in 96-well format following the manufacturer's instruction. cDNA was synthesized with SuperScript™ IV VILO™ Master Mix with ezDNase™ Enzyme (Thermal Fisher) following mRNA isolation.
The primers and probes of ddPCR for hDMPK and GAPDH were pre-designed by Fisher Scientifics qPCR assays (Hs00266705_g1 and Hs01094329_m1). For DMPK expression, one target primer/probe set was used to detect DMPK expression levels, and one reference primer/probe set was used to detect GAPDH expression levels. The 24 μL of ddPCR reaction consisted of 12 μL of Supermix for Probes (no dUTP) (Bio-Rad Laboratories), 1 μL of Reference primers mix (21.6 μM), 1 μL of Reference probe (6 μM), 1 μL of Target primers mix (21.6 μM), 1 μL of Target probe (6 μM), 2 μL of H2O and 6 μL of sample genomic DNA. Droplets were generated using probe oil with the QX200 Droplet Generator (Bio-Rad Laboratories). […] The cycled plate was then transferred and read in the FAM and HEX channels using the Bio-Rad QX200 Droplet Reader (Bio-Rad Laboratories). ddPCR analysis was performed with the Bio-Rad QuantaSoft Pro Software. […]

[3] = system: CUG foci in myonuclei of DM1 patient myotubes; experiment: FISH staining of CUG RNA foci (SaCas9/SluCas9 sgRNA pairs); type: cell-based, human; parameters: average Foci reduction: concentration or dose not given beside the values; settings: for average Foci reduction: myonuclei of DM1 patient myotubes
Method: Primary myotubes were fixed for 15 min with 4% paraformaldehyde (PFA) and washed five times with 1×PBS for 5 min each at room temperature. Before staining, cells were permeabilized with 0.5% triton X-100 in 1×PBS for 5 min at room temperature, and then washed with 30% formamide and 2× saline-sodium citrate (SSC) mixture for 10 min at room temperature. Cells were then stained with 1 ng/μL of Cy3-PNA(CAG)5 probe (PNA Bio, F5001) diluted in 30% formamide, 2×SSC, 2 μg/mL BSA, 66 μg/mL yeast tRNA, and 2 mM vanadyl complex for 15 min at 80° C. Following probe staining, cells were then washed in 30% formamide and 2×SSC mixture for 30 min at 60° C., then washed in 30% formamide and 2×SSC mixture for 30 min at 55° C., and then washed in 1×SSC solution for 10 min at room temperature, and finally washed in 1×PBS for 10 min at room temperature. For staining of myotube nuclei, cells were stained with anti-Myogenin antibody diluted in 1% bovine serum albumin (BSA) for overnight at 4° C. and washed twice with 1×PBS for 5 min each at room temperature. Cells were then incubated with the secondary antibody goat anti-rabbit Alexa 488 (Thermo Fisher, A32731) diluted in 1% BSA for 1 hr at room temperature and washed twice with 1×PBS for 5 min each at room temperature. Next, cells were stained with Hoechst solution (Thermo Fisher, H3569) at 0.1 mg/ml for 5 min and washed once with 1×PBS for 5 min. PBS was aspirated and fresh 100 μl of fresh PBS was added to each well. High-throughput acquisition of images was completed with the ImageXpress Micro Confocal High-Content Imaging System (Molecular Devices). RNA foci quantifications were accomplished with a customized analysis module of the MetaXpress program (Molecular Devices).
Each sgRNA pair consisting of one upstream sgRNA and one downstream sgRNA were assembled with recombinant SaCas9 or SluCas9 protein, respectively, into a ribonucleoprotein (RNP) complex and delivered into primary DM1 patient myoblasts with Amaxa 4D-Nucleofector. Post nucleofection, myoblasts were divided into 6 groups and were treated with DMSO (Groups 1-3) or 3 μM of DNA-dependent Protein Kinase Inhibitor (DNA-PKi) Compound 6 (Group 4-6) for 48 hrs. DNA-PKi was used to boost the excision efficiency and to better understand the contribution of E-boxes to DMPK transcription. 72 hrs post nucleofection, myoblasts from Groups 1 and 4 were collected for genomic DNA isolation, whereas the rest of the groups were subjected to myogenic differentiation to form myotubes. The myotubes were collected on Day 15 post nucleofection (Day 12 post differentiation) for mRNA isolation (Group 2 and 5) and RNA foci staining (Groups 3 and 6) (FIG. 9).

| Compound | average Foci reduction [3] | other results |
| --- | --- | --- |
| Cc1ccnc(N[C@H]2CC[C@@H](Oc3cc(N4CCOCC4)cc4nonc34)CC2)n1 [Compound 6] | – | foci-free myonuclei, DNA-PKi-treated versus vehicle-treated [1]: substantially higher; expected excision, DNA-PKi group compared to the vehicle group [2]: more apparent expected excision; hDMPK mRNA reduction, DNA-Pki treatment group versus DMSO group (DMPK mRNA): more dramatic hDMPK mRNA reduction; further average foci number reduction in myonuclei by DNA-PKi ([3]; DM1 patient myotubes, DNA-PKi group versus DMSO group): no further average foci number reduction |
| SaU1DI: SaCas9 sgRNA pair SaU1 + SaD1, SEQ ID NOs 1300/1305, delivered as RNP (guide 1 ATGGCCTCTCTGCACCCCGCCT; guide 2 CTGGTTCTCCCACAGGGCCCGC; delivered as SaCas9 RNP, further chemistry not given here) | ~50% | – |
| SaU3D1: SaCas9 sgRNA pair SaU3 + SaD1, SEQ ID NOs 1302/1305, delivered as RNP (guide 1 TCTCTGCACCCCGCCTCAGGGT; guide 2 CTGGTTCTCCCACAGGGCCCGC; delivered as SaCas9 RNP, further chemistry not given here) | ~50% | – |
| SaU3D3: SaCas9 sgRNA pair SaU3 + SaD3, SEQ ID NOs 1302/1307, delivered as RNP (guide 1 TCTCTGCACCCCGCCTCAGGGT; guide 2 CTGCGATCCAGGAGGGACAACT; delivered as SaCas9 RNP, further chemistry not given here) | ~50% | – |
| saU5D1: SaCas9 sgRNA pair SaU5 + SaD1, SEQ ID NOs 1304/1305, delivered as RNP (guide 1 CCATAGAGCCCACTTTTGGGGG; guide 2 CTGGTTCTCCCACAGGGCCCGC; delivered as SaCas9 RNP, further chemistry not given here) | ~50% | – |
| sluU3D2: SluCas9 sgRNA pair SluU3 + SluD2, delivered as RNP (guide 1 TCTCTGCACCCCGCCTCAGGGT; guide 2 GAAGAACCCAAAGTTGTCCCTC; delivered as SaCas9 RNP, further chemistry not given here) | ~50% | – |
| sluU3D3: SluCas9 sgRNA pair SluU3 + SluD3, delivered as RNP (guide 1 TCTCTGCACCCCGCCTCAGGGT; guide 2 CTGCGATCCAGGAGGGACAACT; delivered as SaCas9 RNP, further chemistry not given here) | ~50% | – |
| sluU64D34: control CTG repeat excision SluCas9 sgRNA pair, SEQ ID NOs 1497 and 1498 (guide 1 GGGGCTCGAAGGGTCCTTGTAG; guide 2 CGCGCCAGACGCTCCCCAGAGC; listed as DNA, chemistry not given here) [reference compound] | ~50% | – |
